Seven compounds from ChEMBL document CHEMBL4219265, “Piperlongumine derivative, CG-06, inhibits STAT3 activity by direct binding to STAT3 and regulating the reactive oxygen species in DU145 prostate carcinoma cells” (Bioorg Med Chem Lett, 2018) can be followed below.

Each structure is given as a SMILES string.

The subject of data set [1] is LNCaP. Briefly: Growth inhibition of human LNCAP cells after 48 hrs by WST-1 assay. Type of data set: functional. For orientation: Formazan colour is commonly taken as a measure of viable cells.
Data set [2] concerns the target T1, Signal transducer and activator of transcription 3 (Homo sapiens, UniProt P40763). In words: Inhibition of STAT3 phosphorylation at Tyr705 residues in human DU145 cells assessed as ratio of phosphorylated STAT3 protein level to GAPDH protein level at 7 uM after 24 hrs by Western blot analysis (reference value: 1). In kind it is cell-based.
The test system of data set [3] is DU-145. Briefly: Effect on total STAT3 protein level in human DU145 cells assessed as ratio of STAT3 protein level to GAPDH protein level at 5 uM after 24 hrs by Western blot analysis (reference value: 1). The note with it: du-145, 24 h. Type of data set: ADME, cell-based. Background: A western blot detects proteins with antibodies after separation by electrophoresis.

The test system of data set [4] is DU-145. Briefly: Effect on total STAT3 protein level in human DU145 cells assessed as ratio of STAT3 protein level to GAPDH protein level at 1 uM after 24 hrs by Western blot analysis (reference value: 1). In kind it is ADME, cell-based. Conditions: du-145, 24 h.
Data set [5] deals with T1, Signal transducer and activator of transcription 3. In words: Inhibition of STAT3 phosphorylation at Tyr705 residues in human DU145 cells assessed as ratio of phosphorylated STAT3 protein level to GAPDH protein level at 5 uM after 24 hrs by Western blot analysis (reference value: 1). In kind it is cell-based.
For data set [6] the target is unchanged. Briefly: Inhibition of STAT3 phosphorylation at Tyr705 residues in human DU145 cells by Western blot analysis. In kind it is cell-based.
Data set [7] has the same target. Briefly: Inhibition of STAT3 phosphorylation at Tyr705 residues in human DU145 cells after 24 hrs by Western blot analysis. Type of data set: cell-based.
The test system of data set [8] is DU-145. In words: Effect on total STAT3 protein level in human DU145 cells assessed as ratio of STAT3 protein level to GAPDH protein level at 7 uM after 24 hrs by Western blot analysis (reference value: 1). Type of data set: ADME, cell-based. The note with it: du-145, 24 h.
Data set [9] concerns the target T1, Signal transducer and activator of transcription 3. Briefly: Inhibition of STAT3 phosphorylation at Tyr705 residues in human DU145 cells assessed as ratio of phosphorylated STAT3 protein level to GAPDH protein level at 10 uM after 24 hrs by Western blot analysis (reference value: 1). Type of data set: cell-based.
In data set [10] the test system is LNCaP. In words: Growth inhibition of human LNCAP cells after 24 to 48 hrs by WST-1 assay. In kind it is functional.
The subject of data set [11] is PC-3. Briefly: Growth inhibition of human PC3 cells after 48 hrs by WST-1 assay. In kind it is functional. The note with it: PC-3, 48 h.
Data set [12] concerns DU-145. Briefly: Effect on total STAT3 protein level in human DU145 cells assessed as ratio of STAT3 protein level to GAPDH protein level at 10 uM after 24 hrs by Western blot analysis (reference value: 1). Conditions: du-145, 24 h. In kind it is ADME, cell-based.
The subject of data set [13] is DU-145. In words: Growth inhibition of human DU145 cells after 48 hrs by WST-1 assay. In kind it is functional. The note with it: DU-145, 48 h.
The target in data set [14] is T1, Signal transducer and activator of transcription 3. Briefly: Inhibition of STAT3 phosphorylation at Tyr705 residues in human DU145 cells assessed as ratio of phosphorylated STAT3 protein level to GAPDH protein level at 3 uM after 24 hrs by Western blot analysis (reference value: 1). Type of data set: cell-based.
In data set [15] the test system is DU-145. Briefly: Effect on total STAT3 protein level in human DU145 cells assessed as ratio of STAT3 protein level to GAPDH protein level at 3 uM after 24 hrs by Western blot analysis (reference value: 1). In kind it is ADME, cell-based. Conditions: du-145, 24 h.
In data set [16] the target is T1, Signal transducer and activator of transcription 3. Briefly: Inhibition of STAT3 phosphorylation at Tyr705 residues in human DU145 cells assessed as ratio of phosphorylated STAT3 protein level to GAPDH protein level at 1 uM after 24 hrs by Western blot analysis (reference value: 1). In kind it is cell-based.
Data set [17] has as its system PC-3. In words: Growth inhibition of human PC3 cells after 24 to 48 hrs by WST-1 assay. In kind it is functional.
Data set [18] relates to DU-145. In words: Effect on total STAT3 protein level in human DU145 cells assessed as ratio of ERK1/2 protein level to GAPDH protein level at 2 mM after 1 hr by Western blot analysis (reference value: 1). In kind it is ADME, cell-based. The note with it: du-145, 1 h, 2000 µM.
In data set [19] the target is T1, Signal transducer and activator of transcription 3. In words: Inhibition of STAT3 phosphorylation in human DU145 cells assessed as ratio of phosphorylated STAT3 protein level to GAPDH protein level at […] after 1 hr by Western blot analysis (reference value: 1). Type of data set: cell-based.

T1 sequence (P40763 whole entry): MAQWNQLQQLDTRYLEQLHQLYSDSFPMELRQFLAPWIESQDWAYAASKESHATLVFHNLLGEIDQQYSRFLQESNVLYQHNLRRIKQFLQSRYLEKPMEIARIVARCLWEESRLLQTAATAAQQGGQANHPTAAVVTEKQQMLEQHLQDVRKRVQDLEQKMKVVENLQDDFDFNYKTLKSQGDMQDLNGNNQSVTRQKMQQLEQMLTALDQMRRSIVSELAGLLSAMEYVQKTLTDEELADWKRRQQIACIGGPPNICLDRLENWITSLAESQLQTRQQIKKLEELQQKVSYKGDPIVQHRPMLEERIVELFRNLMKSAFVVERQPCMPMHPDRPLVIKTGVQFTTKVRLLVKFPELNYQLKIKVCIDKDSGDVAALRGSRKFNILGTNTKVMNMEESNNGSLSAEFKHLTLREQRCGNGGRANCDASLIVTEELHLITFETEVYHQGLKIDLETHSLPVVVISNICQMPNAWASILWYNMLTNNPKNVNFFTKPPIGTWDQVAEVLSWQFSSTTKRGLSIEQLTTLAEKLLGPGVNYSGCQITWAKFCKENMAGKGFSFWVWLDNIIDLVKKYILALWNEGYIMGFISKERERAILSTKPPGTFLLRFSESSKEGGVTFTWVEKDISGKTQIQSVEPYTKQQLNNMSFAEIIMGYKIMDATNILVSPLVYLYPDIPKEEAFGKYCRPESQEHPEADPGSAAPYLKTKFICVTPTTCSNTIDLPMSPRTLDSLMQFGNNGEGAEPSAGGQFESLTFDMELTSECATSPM

The GI50 is the concentration giving 50% growth inhibition. Low values mean greater sensitivity of the cells, high ones lower sensitivity of the cells. Broadly, the IC50 is the midpoint of a concentration-inhibition curve. In the case of `COc1cc(/C=C/C(=O)N2CCC=CC2=O)cc(OC)c1OC` [PIPLARTINE], the GI50 in the data set with LNCaP [1] was 9.2 µM; with LNCaP [10], greater than 10 µM; in the data set on PC-3 [11] it was greater than 10 µM; with DU-145 [13] it was 7.1 µM; with PC-3 [17] it was greater than 10 µM. Further, the Ratio worked out at 0.5 in data set [2]; 1 in the data set on DU-145 [3]; 1 in the data set with DU-145 [4]; 0.7 in [5]; 1 with DU-145 [8]; 0.3 in data set [9]. For the same compound, the Ratio with DU-145 [12] came out at 0.9; in [14], 0.7; with DU-145 [15], 1.1; in data set [16] it was 0.8. In data set [6], the inhibition entry was “Dose-dependent effect”. Further, the IC50 in data set [7] was determined as 7 µM.

Turning to `C=C(C)C(=O)N(Cc1cccc(Br)c1)C(=O)/C=C/c1cc(OC)c(OC)c(OC)c1`, the GI50 in the data set on LNCaP [1] was 10 µM; in the data set with PC-3 [11], greater than 10 µM; in the data set with DU-145 [13] it was 5.7 µM.

As for `C=C(C)C(=O)N(Cc1ccccc1C)C(=O)/C=C/c1cc(OC)c(OC)c(OC)c1`, the GI50 in the data set on LNCaP [1] was 10 µM; in the data set on PC-3 [11], greater than 10 µM; with DU-145 [13], 4.2 µM.

On to `C=C(C)C(=O)NC(=O)/C=C/c1cc(OC)c(OC)c(OC)c1`, for which the GI50 in the data set on LNCaP [1] was determined as 10 µM; with PC-3 [11], 8.2 µM; in the data set on DU-145 [13] it was 8.6 µM.

Regarding `CC(=O)N[C@@H](CS)C(=O)O` [ACETYLCYSTEINE], the Ratio is 0.8 with DU-145 [18] and 1 in [19].

In the case of `C=C(C)C(=O)N(C)C(=O)/C=C/c1cc(OC)c(OC)c(OC)c1`, the values for the GI50 in the data set with LNCaP [1], in the data set with PC-3 [11] and with DU-145 [13] were greater than 10 µM, greater than 10 µM and 5.6 µM, respectively.

As to `C#CCN(C(=O)/C=C/c1cc(OC)c(OC)c(OC)c1)C(=O)C(=C)C`, the GI50 was greater than 10 µM with LNCaP [1], 7.3 µM in the data set with PC-3 [11] and 2.3 µM with DU-145 [13].
